Results published in patent US4767770A, “Method of inhibiting aromatase” (Eli Lilly and Company, priority 1984, dated 1988).
Where two headings read alike, the source gives them in different places.

Experiments:
aromatase = target: T1, aromatase (Rattus norvegicus, UniProt P22443); assay: biochemical
T1 sequence (P22443 1-508): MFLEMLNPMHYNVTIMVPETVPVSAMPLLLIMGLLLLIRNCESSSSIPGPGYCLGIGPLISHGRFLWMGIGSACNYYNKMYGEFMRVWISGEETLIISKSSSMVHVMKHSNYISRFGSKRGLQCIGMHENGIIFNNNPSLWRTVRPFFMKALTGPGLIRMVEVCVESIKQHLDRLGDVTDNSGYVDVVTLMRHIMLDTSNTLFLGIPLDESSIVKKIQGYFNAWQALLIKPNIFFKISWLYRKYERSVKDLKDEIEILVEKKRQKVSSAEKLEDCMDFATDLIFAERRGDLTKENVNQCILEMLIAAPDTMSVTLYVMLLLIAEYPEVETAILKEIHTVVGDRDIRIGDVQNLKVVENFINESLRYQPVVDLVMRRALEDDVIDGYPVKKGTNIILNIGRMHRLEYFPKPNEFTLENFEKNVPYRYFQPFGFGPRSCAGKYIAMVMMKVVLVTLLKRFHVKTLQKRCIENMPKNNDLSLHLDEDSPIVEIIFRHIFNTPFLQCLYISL
Procedure: In this test system, ovarian microsomes are obtained from rats treated with pregnant mares serum gonadotropin. Test compounds are added to reaction vials containing 0.1 μM 4-androstene-3,17-dione, 100,000 dpm 1,2[^3 H]-androstenedione, the microsomes and a NADPH generating system. The concentrations of the inhibitors tested ranged between 0.005 and 10 μM.

[1] = system: estrogen synthesis (ovarian estradiol, estrone, estriol); assay: Estrogen Synthesis Inhibition in Rats: ovarian steroid concentration after [3H]-testosterone; assay type: in vivo, immature female Wistar rats; settings: 7 days
Procedure: Test compounds were administered for seven days as a component of the diet. Control animals received diet without the test compound. Beginning on the fourth day of the test, all animals treated with the test compound and one half of the control animals were given a subcutaneous injection of 1.0 mg of testosterone propionate in corn oil. The remaining control animals received only an equivalent volume of corn oil.
The ovarian steroids were extracted with 1.5 ml of 9:1 (v/v) toluene/ethanol to which had been added 25 to 100 mcg each of unlabelled estradiol, estriol, and estrone, and approximately 1000 dpm of [^14 C]-estradiol. The samples were vortexed, centrifuged at 500×g for 10 minutes, and the organic phase was transferred to a conical vial. Two additional extractions were performed on the residue in the same way. The pooled organic extracts were evaporated for subsequent thin-layer chromatography.
Ovarian proteins were precipitated by the addition of 5.0 ml of ethanol to the remaining aqueous phase. After an overnight incubation at 4° C., the samples were centrifuged at 1500×g for 10 minutes. The supernatant was discarded and the pellet was dissolved in 0.3N potassium hydroxide.
The organic residue from each above extraction was redissolved in 9:1 (v/v) dichloromethane/methanol. The solution of each sample was applied to separate silica gel thin layer chromatography plates which contained a fluorescent indicator. The plates were developed in the first dimension with 160:38:1.5:0.5 (v/v/v/v) dichloromethane/ethyl acetate/methanol/acetic acid to within 3 cm of the top of the plate. After air-drying, the plate was developed in the second dimension with 180:19:1 (v/v/v) dichloromethane/methanol/ammonium hydroxide.
The spots were scraped from the plate using a glass wool plugged Pasteur pipet attached to a vacuum line. The steroids were eluted directly into scintillation vials by the addition of 0.2 ml of dichloromethane followed by two washes each of 2.0 ml of methanol. The organic solvent was evaporated and 10.0 ml of scintillation fluid (Beckman Ready Solv-NA) was added to the vials. Samples were analyzed by liquid scintillation spectrometry. Corrections were made based on the recoveries of the [^14 C]-steroid. Steroid concentrations are expressed as femtomoles per milligram protein.

[2] = system: estrogen synthesis (aromatization); uterus; assay: Estrogen Synthesis Inhibition in Rats: uterine weight of testosterone propionate-treated immature rats; assay type: in vivo, immature female Wistar rats; settings: 7 days
Procedure: Immature female Wistar rats (45-55 grams) were divided into control and test groups of 2-8 animals each. Test compounds were administered for seven days as a component of the diet. Control animals received diet without the test compound. Beginning on the fourth day of the test, all animals treated with the test compound and one half of the control animals were given a subcutaneous injection of 1.0 mg of testosterone propionate in corn oil. The remaining control animals received only an equivalent volume of corn oil. On the seventh day of the test, rats treated with testosterone propionate were injected subcutaneously with 100 μCi of [^3 H]-testosterone in 50 μl of 3:1 (v/v) saline-ethanol.
After two hours, the animals were killed by decapitation. Uteri were isolated, trimmed of extraneous connective tissue, and weighed. […] In the control animals treated with testosterone propionate, estrogens produced by aromatization stimulated the uterus resulting in an increase in weight.
*ppm in feed. 300 ppm corresponds to approximately 30 mg/kg/day; 200 ppm
corresponds to approximately 20 mg/kg/day; 30 ppm corresponds to
approximately 3 mg/kg/day.

[3] = system: DMBA-induced mammary tumors; assay: DMBA-induced Mammary Tumor Inhibition; assay type: in vivo, female Sprague-Dawley rats; settings: Test I, 300 ppm in diet (approx. 30 mg/kg/day), 5 weeks
Procedure: Mammary tumors were produced in female Sprague-Dawley rats which were 50-60 days old by the gavage administration of 20 mg of 7,12-dimethylbenz[a]anthracene (DMBA). About six weeks after DMBA administration, the mammary glands were palpated at weekly intervals for the appearance of tumors. Whenever one or more tumors appeared and were measurable in an animal, that animal was selected for experimentation. […] Each control and test group contained 8 animals. The test compound was administered mixed into the food at a concentration of 300 ppm (corresponding to an appropriate daily dose of 30 mg/kg). Every experiment included a group of control rats having tumors and were given food without the compound admixed. […] The area of each tumor was calculated by multiplying the shortest and longest diameters of the tumor. The treatment and measurement of animals continued for 4-5 weeks at which time the final areas of the tumors were determined. For each compound (and control) at each dose level, the change in the mean tumor area was determined.
*dosed in the diet. 300 ppm corresponds to approximately 30 mg/kg/day.

[4] = rat ovarian microsomes, substrate (androstenedione) 0.1 μM
[5] = Test IV, 200 ppm in feed (approx. 20 mg/kg/day), testosterone-treated control 0.14
[6] = Test IV, 200 ppm in feed (approx. 20 mg/kg/day), testosterone-treated control 0.24
[7] = Test IV, 200 ppm in feed (approx. 20 mg/kg/day), testosterone-treated control 1.98
[8] = Test IV, 200 ppm in feed (approx. 20 mg/kg/day), testosterone-treated control 213.5

Fc1ccc(N(Cc2cccnc2)C2=NCCS2)c(F)c1 [N--(2,4-difluorophenyl)-N--(4,5-dihydro-2-thiazolyl)-3-pyridinemethanamine]
EC50 (aromatase; [4]): 28 nM
Mean Steroid Concentration, estrone ([1]; Test II, 30 ppm in feed (approx. 3 mg/kg/day), testosterone-treated control 0.64): 0.65 femtomoles per milligram of protein
Mean Steroid Concentration, estriol ([1]; Test II, 30 ppm in feed (approx. 3 mg/kg/day), testosterone-treated control 1.98): 1.56 femtomoles per milligram of protein
Mean Steroid Concentration, estradiol ([1]; Test II, 30 ppm in feed (approx. 3 mg/kg/day), testosterone-treated control 2.07): 1.27 femtomoles per milligram of protein
Mean Steroid Concentration, estriol ([1]; Test II, 300 ppm in feed (approx. 30 mg/kg/day), testosterone-treated control 1.98): 1.18 femtomoles per milligram of protein
Mean Steroid Concentration, estrone ([1]; Test II, 300 ppm in feed (approx. 30 mg/kg/day), value marked + (p < 0.05 vs testosterone-treated control, 0.64)): 0.31 femtomoles per milligram of protein
Mean Steroid Concentration, estradiol ([1]; Test II, 300 ppm in feed (approx. 30 mg/kg/day), value marked + (p < 0.05 vs testosterone-treated control, 2.07)): 1.05 femtomoles per milligram of protein
Mean Uterine Weight ([2]; Test II, 30 ppm in feed (approx. 3 mg/kg/day), testosterone-treated control 176.7): 140.0 mg
Mean Uterine Weight ([2]; Test II, 300 ppm in feed (approx. 30 mg/kg/day), value marked + (p < 0.05 vs testosterone-treated control, 176.7)): 104.5 mg
Mean Tumor Area, Start ([3]; baseline, control 73.9): 83.6 mm^2
Mean Tumor Area, Finish ([3]; control 1140.0): 536.0 mm^2

Clc1ccc(CN(Cc2cccnc2)C2=NCCS2)c(Cl)c1 [N--(4,5-dihydro-2-thiazolyl)-N--(2,4-dichlorobenzyl)-3-pyridinemethanamine]
EC50 (aromatase): 118 nM

Brc1ccc(N(Cc2cccnc2)C2=NCCS2)cc1 [N--(4,5-dihydro-2-thiazolyl)-N--(4-bromophenyl)-3-pyridinemethanamine]
EC50 (aromatase): 110 nM

CC(c1ccc(F)cc1)N(C1=NCCS1)C(C)c1cccnc1 (stereo not drawn) [N--(4,5-dihydro-2-thiazolyl)-N--[1-(4-fluorophenyl)ethyl]-α-methyl-3-pyridinemethanamine]
EC50 (aromatase): 3300 nM

Clc1ccc(CCN(Cc2cccnc2)C2=NCCS2)cc1 [N--(4,5-dihydro-2-thiazolyl)-N--[2-(4-chlorophenyl)ethyl]-3-pyridinemethanamine]
EC50 (aromatase; [4]): 900 nM

CSc1ccc(N(Cc2cccnc2)C2=NCCS2)cc1 [N--(4,5-dihydro-2-thiazolyl)-N--[4-(methylthio)phenyl]-3-pyridinemethanamine]
EC50 (aromatase; [4]): 3200 nM

c1ccc(N(Cc2cccnc2)C2=NCCS2)cc1 [N--(4,5-dihydro-2-thiazolyl)-N--phenyl-3-pyridinemethanamine]
EC50 (aromatase): 460 nM

Cc1cc(Cl)ccc1N(Cc1cccnc1)C1=NCCS1 [N--(4-chloro-2-methylphenyl)-N--(4,5-dihydro-2-thiazolyl)-3-pyridinemethanamine]
EC50 (aromatase; [4]): 440 nM

Clc1ccc(N(Cc2cccnc2)C2=NCCCS2)cc1 [N--(4-chlorophenyl)-5,6-dihydro-N--(3-pyridylmethyl)-4H--1,3-thiazin-2-amine]
EC50 (aromatase): 72 nM
Mean Steroid Concentration, estriol [1, 5]: 0.04 femtomoles per milligram of protein
Mean Steroid Concentration, estrone [1, 6]: 0.11 femtomoles per milligram of protein
Mean Steroid Concentration, estradiol [1, 7]: 1.54 femtomoles per milligram of protein
Mean Uterine Weight [2, 8]: 193.0 mg

Clc1ccc(N(Cc2cccnc2)C2=NCCO2)cc1 [N--(4-chlorophenyl)-N--(4,5-dihydro-2-oxazolyl)-3-pyridinemethanamine]
EC50 (aromatase): 80 nM

Clc1ccc(N(Cc2cnccn2)C2=NCCS2)cc1 [N--(4-chlorophenyl)-N--(4,5-dihydro-2-thiazolyl)-2-pyrazinemethanamine]
EC50 (aromatase): 3130 nM

Clc1ccc(N(Cc2cncnc2)C2=NCCS2)cc1 [N--(4-chlorophenyl)-N--(4,5-dihydro-2-thiazolyl)-5-pyrimidinemethanamine]
EC50 (aromatase): 610 nM

CC(c1cccnc1)N(C1=NCCS1)c1ccc(Cl)cc1 (stereo not drawn) [N--(4-chlorophenyl)-N--(4,5-dihydro-2-thiazolyl)-α-methyl-3-pyridinemethanamine]
EC50 (aromatase; [4]): 2350 nM

CC1CSC(N(Cc2cccnc2)c2ccc(Cl)cc2)=N1 (centres unmarked) [N--(4-chlorophenyl)-N--(4,5-dihydro-4-methyl-2-thiazolyl)-3-pyridinemethanamine]
Mean Steroid Concentration, estrone ([1]; Test III, 30 ppm in feed (approx. 3 mg/kg/day), testosterone-treated control 1.02): 1.14 femtomoles per milligram of protein
Mean Steroid Concentration, estradiol ([1]; Test III, 30 ppm in feed (approx. 3 mg/kg/day), testosterone-treated control 1.31): 2.40 femtomoles per milligram of protein
Mean Steroid Concentration, estriol ([1]; Test III, 30 ppm in feed (approx. 3 mg/kg/day), testosterone-treated control 1.32): 1.56 femtomoles per milligram of protein
Mean Steroid Concentration, estrone ([1]; Test III, 300 ppm in feed (approx. 30 mg/kg/day), testosterone-treated control 1.02): 0.62 femtomoles per milligram of protein
Mean Steroid Concentration, estradiol ([1]; Test III, 300 ppm in feed (approx. 30 mg/kg/day), testosterone-treated control 1.31): 0.95 femtomoles per milligram of protein
Mean Steroid Concentration, estriol ([1]; Test III, 300 ppm in feed (approx. 30 mg/kg/day), testosterone-treated control 1.32): 0.37 femtomoles per milligram of protein
Mean Uterine Weight ([2]; Test III, 30 ppm in feed (approx. 3 mg/kg/day), testosterone-treated control 220.0): 225.5 mg
Mean Uterine Weight ([2]; Test III, 300 ppm in feed (approx. 30 mg/kg/day), testosterone-treated control 220.0): 187.6 mg

CC1CSC(N(c2ccc(Cl)cc2)C(C)c2cccnc2)=N1 (stereo not drawn) [N--(4-chlorophenyl)-N--(4,5-dihydro-4-methyl-2-thiazolyl)-α-methyl-3-pyridinemethanamine]
EC50 (aromatase; [4]): 1950 nM

CC(c1ccc(Cl)cc1)N(Cc1cccnc1)C1=NCCS1 (centres unmarked) [N--[1-(4-chlorophenyl)ethyl]-N--(4,5-dihydro-2-thiazolyl)-3-pyridinemethanamine]
EC50 (aromatase): 48 nM
Mean Steroid Concentration, estriol [1, 5]: 0.04 femtomoles per milligram of protein
Mean Steroid Concentration, estrone [1, 6]: 0.13 femtomoles per milligram of protein
Mean Steroid Concentration, estradiol [1, 7]: 1.01 femtomoles per milligram of protein
Mean Uterine Weight [2, 8]: 185.8 mg
